From patent EP1038880B1, “Androstanes and pregnanes for allosteric modulation of GABA receptor” (priority 1994, dated 1995)

Key:
Rats = experiment: Vogel test; assay type: in vivo; conditions: i.c.v., g-CD
Source text: The Vogel test is based on the development of a conflict between a highly motivated behavior and an aversion. For this test, the strong motivation is thirst. The animal is water deprived for 12-16 hrs to produce the motivation to drink. During the training period the animals are exposed to the testing environment so they become accustomed to the drinking spout and minimize the fear of a novel environment. Following training, the animals are allowed access to water for 2 hrs. During this time, the animals will drink and eat their normal amount of water and food, compensating for the deprivation time. However, this schedule still produces a strong motivation to drink during the testing period.
Having been deprived of water for twelve to sixteen hours, an animal is placed in a test cage where it is allowed to drink freely for five minutes. This period is used to habituate the animal to the environment and the drinking spout. Following the training period, animals have access to water and food in their home cage for 2 hrs. Food is available at all times. Twenty-four hours later, drug is administered to the animal intracecebroventricularly.
After an indicated delay started from the time of injection the animal is again placed in the test cage for ten minutes. A computer counts each time the animal licks, and after every twentieth lick administers a mild electric stimulus across the tongue and/or feet. The electrical stimulus consists of a 0.6 mA current with a duration of 100 msec. This procedure produces a state of conflict for the animal that is reduced by the administration of clinically used anxiolytic agents (i.e., Valium). For dose-response curves, separate groups of animals are injected with increasing doses of test drug and are tested at a predetermined time.
Table 10. Anxiolytic Activity in Vogel Test in Rats

Sprague-Dawley rats = experiment: Geller-Seifter conflict test; assay type: in vivo
Source text: This animal model of human anxiety utilizes a conditioned state of conflict in rats to ascertain the anxiolytic properties of drugs. […] The first includes bar pressing under a variable […] schedule without punishment. The second component is a fixed ratio schedule with each bar press resulting in a positive reinforcement and a punishment. The punished component produces a state of conflict within the animal. […] An anxiolytic response would increase the punished responding without affecting the unpunished responding.
Rats were housed individually under a 12-hour light-dark cycle with lights on from 0700-1900.
Rats were trained in test chambers (Coulbourn instruments) with a lever mounted in one wall, a small dipper that delivered the 0.1-mL milk reward (1 part Eagle condensed : milk 2 parts water), and a metal grid floor through which the foot-shock punishment was administered. A DEC PDP 11/73 minicomputer nmning SKED (State Systems) was used for programming and recording.
Rates initially learned to respond on a continuous reinforcement schedule and progressed rapidly to 30-sec, 1-min, and 2-min variable interval (VI) schedules. On the continuous reinforcement schedule, rats received milk reward following every lever press; on the VI schedules, milk rewards were available at infrequent and variable intervals, eventually at an average of once every 2 min. […] During conflict periods, which were signalled by the presentation of a light and a tone, the continuous reinforcement schedule was again in force and each lever press delivered both a milk reward and a brief ([…]) foot-shock Shock intensity was 0.2 mA initially, and.was increased daily in increments of 0.02 mA in order to gradually suppress lever pressing to 5 responses or less per conflict period. […] Drug-induced increases in the rate of punished responses were taken as an index of antianxiety activity, while decreases in the rate of unpunished responses were taken as an index of response depression or sedation.

GR complex = experiment: [35S]TBPS binding assay (inhibition of [35S]TBPS binding, cerebral cortex P2 homogenate); parameters: species or system rat; conditions: for modulation of [35S]TBPS binding, in words: even at very high concentrations (Figure 6)
In short: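 Rat (male Sprague-Dawley) cortical P2 homogenate (0.5 mg protein) in 50 mM Na/K phosphate pH 7.4, 200 mM NaCl, incubated with 2 nM [35S]TBPS plus steroid test compounds (DMSO) in presence of GABA plus (+)bicuculline, 25°C, 90 min. Filtration, scintillation counting; nonspecific binding defined with […].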

[1] = target: T1, Hippocampal Mineralocorticoid Receptors (Rattus norvegicus, UniProt P22199); experiment: Inhibition of 3H-aldosterone binding, brain cytosol; parameters: species or system rats; conditions: competitor 10^-6M; 3 nM 3H-aldosterone, RU28362 0.5 µM
T1 construct: To isolate the mineralocorticoid receptor, brain cytosol fractions were prepared; from tissue; host or cells: rat brain (hippocampal) cytosol
T1 sequence (P22199 1-981): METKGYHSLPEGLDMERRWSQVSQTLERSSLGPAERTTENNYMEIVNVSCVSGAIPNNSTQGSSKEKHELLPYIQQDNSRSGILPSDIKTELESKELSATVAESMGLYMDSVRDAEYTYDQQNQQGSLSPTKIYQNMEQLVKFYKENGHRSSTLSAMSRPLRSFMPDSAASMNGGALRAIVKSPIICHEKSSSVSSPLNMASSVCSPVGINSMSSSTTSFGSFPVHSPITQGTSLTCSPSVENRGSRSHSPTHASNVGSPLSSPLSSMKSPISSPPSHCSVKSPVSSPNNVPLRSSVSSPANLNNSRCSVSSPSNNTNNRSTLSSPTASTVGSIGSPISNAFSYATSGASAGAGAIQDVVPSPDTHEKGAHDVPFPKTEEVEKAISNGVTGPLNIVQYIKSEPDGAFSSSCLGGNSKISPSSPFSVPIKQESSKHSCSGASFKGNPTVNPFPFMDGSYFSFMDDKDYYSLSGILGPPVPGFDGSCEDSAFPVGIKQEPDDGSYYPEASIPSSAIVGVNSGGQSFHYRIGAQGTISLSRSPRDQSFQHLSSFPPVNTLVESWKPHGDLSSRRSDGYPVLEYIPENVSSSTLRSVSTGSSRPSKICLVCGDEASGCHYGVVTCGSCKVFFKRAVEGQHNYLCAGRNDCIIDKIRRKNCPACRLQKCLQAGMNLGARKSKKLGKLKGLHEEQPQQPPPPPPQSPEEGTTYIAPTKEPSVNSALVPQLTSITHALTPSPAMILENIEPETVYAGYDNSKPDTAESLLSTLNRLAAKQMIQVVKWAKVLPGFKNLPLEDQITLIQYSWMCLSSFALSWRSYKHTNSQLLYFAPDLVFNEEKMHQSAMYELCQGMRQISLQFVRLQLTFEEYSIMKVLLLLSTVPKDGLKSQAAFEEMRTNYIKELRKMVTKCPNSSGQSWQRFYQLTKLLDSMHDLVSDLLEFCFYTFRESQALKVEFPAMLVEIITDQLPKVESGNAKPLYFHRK
Description: (§1) Various hormonal activities of representative neuroactive steroids were further studied through testing their potential estrogenic, mineralocorticoid and glucocorticoid activities. These activities were analyzed by monitoring the ability of the compounds to inhibit binding of the steroid hormones to their respective hormone receptors.
In Table 3, rats were adrenalectomized 3 days prior to sacrifice. […] Table 2. Inhibition of 3H-Progesterone Binding to the Bovine Uteral Progesterone Receptors
Table 3. Inhibition of 3H-Aldosterone Binding to Hippocampal Mineralocorticoid Receptors

[2] = tested on: Bovine Uteral Progesterone Receptors; experiment: Inhibition of 3H-progesterone binding, uterus cytosol; conditions: competitor 10^-6M; 3H-progesterone 0.15 nM
Description: The data presented were obtained by performing assays in accordance with the procedures described in et al. 1988 previously to determine the effect of progesterone metabolites and their derivatives and the progestin R5020 on the binding of [^3H]R5020 to the progesterone receptor in rat uterus (Gee et al. 1988).
^3H-progesterone (0.15 nM) was incubated with the rat uterus cytosol in the presence of the test compounds. The specific binding were determined after incubation and compared to the control incubation without the compounds. The data are expressed as percent inhibition of binding.
In Table 3, rats were adrenalectomized 3 days prior to sacrifice. To isolate the mineralocorticoid receptor, brain cytosol fractions were prepared as describe in Gee, et al. 1988. The drugs were incubated with 3 nM of ^3H-aldosterone (the specific ligand for the mineralocorticoid receptor) in the presence of the selective type II agonist RU28362 (0.5 µM) which blocks ^3H-aldosterone binding to the type II (glucocorticoid) receptors. Table 2. Inhibition of 3H-Progesterone Binding to the Bovine Uteral Progesterone Receptors

Glucocorticoid Receptors = target: T2, Glucocorticoid Receptors (Rattus norvegicus, UniProt P06536); experiment: Inhibition of 3H-dexamethasone binding, brain cytosol; parameters: species or system rats; dose or concentration left out as unconfirmed; conditions: read-out: % of Inhibition
T2 construct: from tissue; host or cells: rat brain cytosol
T2 sequence (P06536 1-795): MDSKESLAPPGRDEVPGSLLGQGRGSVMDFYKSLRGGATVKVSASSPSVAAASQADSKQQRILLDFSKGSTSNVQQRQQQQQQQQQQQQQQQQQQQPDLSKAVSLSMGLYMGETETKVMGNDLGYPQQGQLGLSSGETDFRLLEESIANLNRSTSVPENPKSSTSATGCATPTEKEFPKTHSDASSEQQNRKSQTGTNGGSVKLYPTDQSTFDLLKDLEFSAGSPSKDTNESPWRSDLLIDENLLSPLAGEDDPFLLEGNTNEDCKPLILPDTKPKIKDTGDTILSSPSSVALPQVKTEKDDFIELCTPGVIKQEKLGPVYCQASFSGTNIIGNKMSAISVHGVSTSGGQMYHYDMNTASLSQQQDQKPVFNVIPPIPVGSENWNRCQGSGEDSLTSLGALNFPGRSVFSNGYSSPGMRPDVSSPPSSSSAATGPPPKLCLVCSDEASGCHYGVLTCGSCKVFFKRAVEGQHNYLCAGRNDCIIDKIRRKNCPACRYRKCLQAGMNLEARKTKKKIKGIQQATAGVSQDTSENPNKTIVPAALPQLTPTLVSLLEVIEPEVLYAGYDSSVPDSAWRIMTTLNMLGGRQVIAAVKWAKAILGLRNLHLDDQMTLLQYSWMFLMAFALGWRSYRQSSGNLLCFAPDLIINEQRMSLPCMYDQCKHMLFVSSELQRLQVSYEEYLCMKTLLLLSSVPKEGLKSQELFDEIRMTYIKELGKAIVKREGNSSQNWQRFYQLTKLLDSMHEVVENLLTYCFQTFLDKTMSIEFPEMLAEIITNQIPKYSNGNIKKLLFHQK
Description: as §1
For Table 4, brain cytosol fractions were prepared as for Table 3, and the compounds were incubated with 3 nM of ^3H-dexamethasone (the specific ligand for the glucocorticoid receptor).

For `CC(O)C1CCC2C3CCC4CC(O)C(F)CC4(C)C3CCC12C` (stereo not drawn) [2β-Fluoro-3α,20α-dihydroxy-5α-pregnane], the “Vogel (%of control)” value (Rats; 20 µg/kg) was 264.9 %of control.

With `C[C@H](O)[C@H]1CC[C@H]2[C@@H]3CC[C@H]4C[C@H](O)CC[C@]4(C)[C@H]3CC[C@]12C` [3α,20α(S)-Dihydroxy-5α-pregnane] the “Vogel (%of control)” value (Rats; 10 µg/kg) was 193.0 %of control.

With `CC(C)OC1CC2(C)C(CCC3C2CCC2(C)C(C(C)O)CCC32)CC1O` (stereo not drawn) [3α,20α-Dihydroxy-2β-isopropoxy-5α-pregnane] the “Vogel (%of control)” value (Rats; 10 µg/kg) was 169.0 %of control.

`CCC[C@H](O)[C@H]1CC[C@H]2[C@@H]3CC[C@H]4C[C@H](O)CC[C@]4(C)[C@H]3CC[C@]12C` [3α,20α-Dihydroxy-21-ethyl-5α-pregnane] was tested, and the “Vogel (%of control)” value (Rats; 20 µg/kg) was 225.8 %of control.

In the case of `CC[C@H](O)[C@H]1CC[C@H]2[C@@H]3CC[C@H]4C[C@H](O)CC[C@]4(C)[C@H]3CC[C@]12C` [3α,20α-Dihydroxy-21-methyl-5α-pregnane], the “Vogel (%of control)” value (Rats; 10 µg/kg) is reported as 157.9 %of control.

In the case of `COC[C@@]1(O)CC[C@@]2(C)[C@@H](CC[C@@H]3[C@@H]2CC[C@]2(C)[C@@H](C(C)=O)CC[C@@H]32)C1` [3α-Hydroxy-3β-methoxymethyl-5α-pregnan-20-one], the “Geller/ Seifter (% of control)” value (Sprague-Dawley rats; IP, 50% hpbcd, 10 mg/kg) is reported as 958 % of control.

With `CCOC[C@@]1(O)CC[C@@]2(C)[C@@H](CC[C@@H]3[C@@H]2CC[C@]2(C)[C@@H](C(C)=O)CC[C@@H]32)C1` [3α-hydroxy-3β-ethoxymethyl-5α-pregnan-20-one] the “Geller/ Seifter (% of control)” value (Sprague-Dawley rats; IP, 50% hpbcd, 40 mg/kg) was 3743 % of control.

`C[C@H](O)[C@H]1CC[C@H]2[C@@H]3CC[C@H]4C[C@H](O)CC[C@]4(C)[C@H]3CC[C@]12C` [5α-pregnan-3α,20α-diol, reference compound] was tested, and the “Vogel (%of control)” value (Rats; 10 µg/kg) was 283.3 %of control, the “Vogel (%of control)” value (Rats; 20 µg/kg) was 267.3 %of control and the “modulation of [35S]TBPS binding, in words” value (GR complex) was “partially modulate”. It also gave an inhibition at 1 µM [1] of 0%.

`CC(C)(O)[C@H]1CC[C@H]2[C@@H]3CC[C@H]4C[C@H](O)CC[C@]4(C)[C@H]3CC[C@]12C` [5α-pregnan-20-dimethyl-3α,20-diol] was tested, and the “% of Inhibition” value [2] was 0%, the inhibition (Glucocorticoid Receptors) was 2.6% and the inhibition at 1 µM [1] was 0%.

In the case of `C[C@H](O)[C@H]1CC[C@H]2[C@@H]3CC[C@@H]4C[C@H](O)CC[C@]4(C)[C@H]3CC[C@]12C` [5β-pregnan-3α,20α-diol], the “% of Inhibition” value [2] is reported as 0%, the “modulation of [35S]TBPS binding, in words” value (GR complex) is reported as “partially modulate” and the inhibition at 1 µM [1] is reported as 0%.

In the case of `C[C@]12CC[C@@H](O)C[C@H]1CC[C@@H]1[C@@H]2CC[C@]2(C)[C@@H](C(=O)CO)CC[C@@H]12` [5β-pregnan-3α,21-diol-20-one], the “% of Inhibition” value [2] is reported as 6%, the inhibition (Glucocorticoid Receptors) is reported as 8.2% and the inhibition at 1 µM [1] is reported as 13.8%.

In the case of `CC(=O)C1CCC2C3CCC4CC(O)(C(F)(F)F)CCC4(C)C3C(N(C)C)CC12C` (stereo not drawn) [11α-N,N-Dimethylamino-3α-hydroxy-3β-trifluoromethyl-5β pregnan-20-one], the “Geller/ Seifter (% of control)” value (Sprague-Dawley rats; IP, citrate, 20 mg/kg) is reported as 145 % of control.

For `C[C@]12CCC(=O)C=C1CC[C@@H]1[C@@H]2[C@@H](O)C[C@]2(C=O)[C@@H](C(=O)CO)CC[C@@H]12` [Aldosterone], the inhibition at 1 µM [1] was 95.5%.

`COCC1(O)CCC2(C)C(CCC3C2CCC2(C)C(C(=O)CSS(=O)(=O)[O-])CCC32)C1.[Na+]` (stereo not drawn) [sodium S-(3α-hydroxy-3β-methoxymethyl-5α-pregnan-20-on-21-yl) thiosulfate] was tested, and the “Geller/ Seifter (% of control)” value (Sprague-Dawley rats; PO, water, 32 mg/kg) was 4487.5 % of control, the IC50 (GR complex; 2 nM [35S]TBPS, rat cerebral cortex P2 homogenate) was 132 nM and the IMAX (GR complex; maximum inhibition of [35S]TBPS binding) was 103%.
